Measurements reported in ChEMBL document CHEMBL4052588, “Design of a Biased Potent Small Molecule Inhibitor of the Bromodomain and PHD Finger-Containing (BRPF) Proteins Suitable for Cellular and in Vivo Studies” (J Med Chem, 2017).

Key:
[1] = target: T1, Bromodomain-containing protein 1 (Homo sapiens) (UniProt O95696)
T1 sequence (whole entry): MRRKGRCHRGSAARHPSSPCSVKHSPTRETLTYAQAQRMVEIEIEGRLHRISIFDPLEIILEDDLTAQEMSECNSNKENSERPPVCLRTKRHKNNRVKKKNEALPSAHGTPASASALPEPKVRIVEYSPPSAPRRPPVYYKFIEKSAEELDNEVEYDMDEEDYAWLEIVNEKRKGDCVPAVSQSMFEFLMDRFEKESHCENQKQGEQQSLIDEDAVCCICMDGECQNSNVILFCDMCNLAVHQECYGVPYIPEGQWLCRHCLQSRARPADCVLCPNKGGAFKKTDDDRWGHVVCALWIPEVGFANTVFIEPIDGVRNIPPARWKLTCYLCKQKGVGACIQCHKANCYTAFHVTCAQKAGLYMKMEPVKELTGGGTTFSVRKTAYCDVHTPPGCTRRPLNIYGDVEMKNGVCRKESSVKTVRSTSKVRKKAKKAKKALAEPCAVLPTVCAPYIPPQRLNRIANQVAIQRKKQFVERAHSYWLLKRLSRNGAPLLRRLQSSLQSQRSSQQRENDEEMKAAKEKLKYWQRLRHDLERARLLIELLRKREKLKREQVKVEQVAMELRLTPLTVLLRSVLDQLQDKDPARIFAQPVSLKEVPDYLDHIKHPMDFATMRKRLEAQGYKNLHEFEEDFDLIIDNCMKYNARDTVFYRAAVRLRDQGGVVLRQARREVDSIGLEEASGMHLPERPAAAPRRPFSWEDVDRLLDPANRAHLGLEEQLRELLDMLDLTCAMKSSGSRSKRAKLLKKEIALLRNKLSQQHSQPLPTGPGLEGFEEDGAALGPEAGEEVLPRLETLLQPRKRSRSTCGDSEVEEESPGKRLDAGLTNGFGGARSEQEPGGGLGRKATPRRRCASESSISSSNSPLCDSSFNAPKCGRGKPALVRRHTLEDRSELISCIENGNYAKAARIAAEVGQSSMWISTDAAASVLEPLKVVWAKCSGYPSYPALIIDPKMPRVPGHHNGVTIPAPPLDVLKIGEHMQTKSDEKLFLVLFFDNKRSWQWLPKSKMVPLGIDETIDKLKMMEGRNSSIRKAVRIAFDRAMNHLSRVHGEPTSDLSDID

[2] = target: T2, ATPase family AAA domain-containing protein 2 (Homo sapiens, UniProt Q6PL18); assay: Inhibition of human ATAD2A expressed in Escherichia coli BL21 after 1 hr by BROMOscan assay
T2 sequence (Q6PL18 whole entry): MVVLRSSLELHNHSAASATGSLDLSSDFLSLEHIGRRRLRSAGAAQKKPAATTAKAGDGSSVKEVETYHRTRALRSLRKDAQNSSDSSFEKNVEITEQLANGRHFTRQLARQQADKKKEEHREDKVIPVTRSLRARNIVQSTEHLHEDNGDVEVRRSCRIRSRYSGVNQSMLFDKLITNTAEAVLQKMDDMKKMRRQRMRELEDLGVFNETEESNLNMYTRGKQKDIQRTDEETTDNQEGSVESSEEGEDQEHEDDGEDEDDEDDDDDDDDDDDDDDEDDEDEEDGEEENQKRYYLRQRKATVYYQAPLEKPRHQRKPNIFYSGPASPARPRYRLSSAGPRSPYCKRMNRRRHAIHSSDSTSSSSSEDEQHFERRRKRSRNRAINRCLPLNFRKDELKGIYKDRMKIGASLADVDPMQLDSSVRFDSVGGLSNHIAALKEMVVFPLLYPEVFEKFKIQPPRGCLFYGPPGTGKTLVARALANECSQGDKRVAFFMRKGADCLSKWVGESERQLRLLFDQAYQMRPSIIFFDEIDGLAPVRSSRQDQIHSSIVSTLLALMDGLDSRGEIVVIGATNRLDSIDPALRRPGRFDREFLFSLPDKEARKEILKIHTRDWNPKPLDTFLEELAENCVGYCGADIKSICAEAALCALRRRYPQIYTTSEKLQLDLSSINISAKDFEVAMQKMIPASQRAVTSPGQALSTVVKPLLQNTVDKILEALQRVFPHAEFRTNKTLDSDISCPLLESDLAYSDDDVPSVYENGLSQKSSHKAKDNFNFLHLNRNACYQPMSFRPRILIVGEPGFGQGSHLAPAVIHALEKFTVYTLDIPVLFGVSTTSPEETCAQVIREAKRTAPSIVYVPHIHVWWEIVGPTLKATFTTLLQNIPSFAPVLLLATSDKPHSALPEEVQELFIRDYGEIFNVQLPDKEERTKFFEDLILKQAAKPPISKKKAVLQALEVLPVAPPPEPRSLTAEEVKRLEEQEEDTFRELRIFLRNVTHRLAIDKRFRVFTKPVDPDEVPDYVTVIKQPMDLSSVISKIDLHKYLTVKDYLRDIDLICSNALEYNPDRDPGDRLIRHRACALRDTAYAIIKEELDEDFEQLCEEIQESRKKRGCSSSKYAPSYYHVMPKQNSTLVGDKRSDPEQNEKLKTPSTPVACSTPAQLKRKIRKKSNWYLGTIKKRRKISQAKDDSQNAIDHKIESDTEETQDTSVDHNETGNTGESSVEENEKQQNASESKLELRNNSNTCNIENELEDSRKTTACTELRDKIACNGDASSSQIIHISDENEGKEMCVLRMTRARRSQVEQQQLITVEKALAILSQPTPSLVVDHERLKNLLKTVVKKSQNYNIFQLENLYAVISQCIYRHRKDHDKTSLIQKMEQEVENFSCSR

ΔTm [1] [°C] | IC50 [2] [µM] | SMILES
3.4 | – | Cc1cc(C#N)ccc1S(=O)(=O)Nc1ccc2c(ccc(=O)n2C)c1
5.1 | > 100 | Cc1cc2cc(NS(=O)(=O)c3ccc(C#N)cc3)ccc2n(C)c1=O
– | > 100 | CCc1cc2cc(NS(=O)(=O)c3ccc(C#N)cc3)ccc2n(CC)c1=O
